According to US20200306173A1, “LICORICE EXTRACT SYNERGY WITH MENTHOL FOR BREATH FRESHENING IN A CONFECTIONARY PRODUCT” (WM. WRIGLEY JR. COMPANY, priority 2017, published 2020):

System: salivary bacteria
Assay: Hydrogen sulfide production by salivary bacteria in pooled saliva mixed with L-cysteine, headspace GC with sulfur detector
Assay type: cell-based, human
Conditions: Example 2, FIG. 2; menthol alone at 4 mg/ml as compared to 2 mg/ml
Method: • 1. About 10-20 ml of saliva was obtained from human subjects and mixed together prior to use. • 2. L-cysteine was dissolved in deionized (D.I.) water to produce 0.5% of cysteine solution. • 3. About 2.5 ml of pooled saliva was mixed with 2.5 ml of cysteine solution in a 20 ml headspace vial. • 4. The amount of hydrogen sulfide generated by salivary bacteria was analyzed by a gas chromatography (GC) equipped with a sulfur detector. Pooled saliva (50% dilution) and L-cysteine (0.25% in D.I. water) were used as the negative controls.
• 1. For evaluation of the headspace concentration of volatile sulfur compounds (VSCs), a gas chromatograph (GC) equipped with a sulfur chemiluminescence detector (SCD) was used. • 2. Each run was completed within 10 minutes. • 3. The level of H2S was analyzed by the GC-SCD by direct injection of 0.25 ml of headspace volume with an automated sampler.
Levels of H2S concentrations [μg/mL] were measured by gas […]. Licorice extract powder (Glycyrrhiza glabra) and menthol were each evaluated individually and then in combination. Saliva with cysteine served as a control reference. Licorice extract powder was sampled individually at 10 mg/ml and 20 mg/ml in a saliva-cysteine mixture. Menthol at 2 mg/ml was sampled individually. Three combinations of licorice and menthol were sampled, varying the amount of licorice extract.

CC1CCC(C(C)C)C(O)C1 (stereo not shown) [menthol]
H2S production (peak gas chromatography area): slight decrease of H2S production in later time points
